Measurements from patent US9889113B2, “Method for reversing, preventing, delaying or stabilizing soft tissue calcification” (Panion & BF Biotech, Inc., priority 2006, dated 2018).

How the values were obtained:
[1] = system: patients with end stage renal disease (ESRD) on hemodialysis; assay: Randomized, double-blind, placebo-controlled, dose-ranging study of ferric citrate on serum phosphate, Ca and Ca×PO4; assay type: in vivo, human; conditions: for Serum [Ca] (mg/dL) at Day 0 / Serum [PO4] (mg/dL) at Day 0 / [Ca] * [PO4] (mg/dL)^2 at Day 0: Day 0 baseline; for Serum Ca (mg/dL): Linear Regression: N.S.: Not Significant
Description: Objectives: (1) To determine the effect of ferric citrate at doses of 2, 4 and 6 g daily, administered TID (three times a day), for 28 days on serum phosphate (PO4) levels in patients with end stage renal disease (ESRD). (2) To evaluate the safety of ferric citrate at doses of 2, 4, 6 g daily, administered TID, for 28 days in patients with ESRD.
Study Design: Randomized, double-blind, placebo-controlled, dose-ranging study to assess the effect of ferric citrate on serum phosphate concentrations in patients with ESRD on hemodialysis. Patients are assessed at Study Days 14 and 28 for effectiveness as measured by serum phosphate concentrations. Patients who received one or more doses of study medication are also assessed for safety.
Study Duration: 8 weeks (including the screening period, 2 weeks washout, 4 weeks treatment)
Ferric citrate is administered orally, and is given equally three times a day.

[2] = system: patients with end stage renal disease (ESRD); assay: Serum creatinine level in the open-label extension of the Phase II study; assay type: in vivo, human; conditions: several patients who received 6 g/day
Description: Glomerular filtration rate (GFR) level correlates with structural kidney damage and is used as a golden standard to measure kidney function. GFR can be estimated by the biomarkers serum creatinine. As renal function deteriorates, kidney lost its function to excrete creatinine effectively and lead to creatinine retention in the body. Therefore, increase of serum creatinine indicates lowering GFR and is an important sign of kidney deterioration.
In an open-label extension of a Phase II clinical study: “randomized, double-blind, placebo-controlled, dose-ranging study of the effects of ferric citrate on serum phosphate in patients with end stage renal disease (ESRD)”, some of the patients were administered 2-6 g/day of ferric citrate and serum creatinine level was monitored to assess kidney function.

[3] = 0, 2, 4 and 6 gm/day, TID immediately after meals
[4] = 6 g/day (N = 32), Day 28, *P < 0.05 baseline change vs placebo
[5] = Day 14, 2, 4, 6 g/day TID vs placebo
[6] = Day 28, 2, 4, 6 g/day TID vs placebo

`O=C([O-])CC(O)(CC(=O)[O-])C(=O)[O-].[Fe+3]` [ferric citrate] was tested. Which “Ca*PO4” value [1, 3] did it give?
Its value is “decrease”.

What about the “serum PO4” value [1, 3] of the same compound?
Its value is “decrease”.

What about the “Serum [Ca] (mg/dL) at Day 0” value ([1]; 2 g/day (N = 31)) of the same compound?
Its value is 8.78 mg/dL.

What about the “Serum [PO4] (mg/dL) at Day 0” value ([1]; 2 g/day (N = 31)) of the same compound?
Its value is 7.2 mg/dL.

And the “[Ca] * [PO4] (mg/dL)^2 at Day 0” value ([1]; 2 g/day (N = 31))?
The value was 62.9 (mg/dL)^2.

And the “Serum [Ca] (mg/dL) at Day 14” value ([1]; 2 g/day (N = 31), Day 14)?
The value was 9.01 mg/dL.

And the “Serum [PO4] (mg/dL) at Day 14” value ([1]; 2 g/day (N = 31), Day 14)?
Its value is 6.7 mg/dL.

What about the “[Ca] * [PO4] (mg/dL)^2 at Day 14” value ([1]; 2 g/day (N = 31), Day 14) of the same compound?
Its value is 60.3 (mg/dL)^2.

And the “Serum [Ca] (mg/dL) at Day 28” value ([1]; 2 g/day (N = 31), Day 28)?
The value was 9.00 mg/dL.

And the “Serum [PO4] (mg/dL) at Day 28” value ([1]; 2 g/day (N = 31), Day 28)?
The value was 6.9 mg/dL.

And the “[Ca] * [PO4] (mg/dL)^2 at Day 28” value ([1]; 2 g/day (N = 31), Day 28)?
Its value is 61.7 (mg/dL)^2.

What about the “Serum [Ca] (mg/dL) at Day 0” value ([1]; 4 g/day (N = 32)) of the same compound?
The value was 9.02 mg/dL.

What about the “Serum [PO4] (mg/dL) at Day 0” value ([1]; 4 g/day (N = 32)) of the same compound?
Its value is 7.1 mg/dL.

And the “[Ca] * [PO4] (mg/dL)^2 at Day 0” value ([1]; 4 g/day (N = 32))?
The value was 63.5 (mg/dL)^2.

And the “Serum [Ca] (mg/dL) at Day 14” value ([1]; 4 g/day (N = 32), Day 14)?
Its value is 9.47 mg/dL.

And the “Serum [PO4] (mg/dL) at Day 14” value ([1]; 4 g/day (N = 32), Day 14)?
Its value is 6.4 mg/dL.

What about the “[Ca] * [PO4] (mg/dL)^2 at Day 14” value ([1]; 4 g/day (N = 32), Day 14) of the same compound?
Its value is 59.9 (mg/dL)^2.

And the “Serum [Ca] (mg/dL) at Day 28” value ([1]; 4 g/day (N = 32), Day 28)?
Its value is 9.29 mg/dL.

And the “Serum [PO4] (mg/dL) at Day 28” value ([1]; 4 g/day (N = 32), Day 28)?
Its value is 6.0 mg/dL.

What about the “[Ca] * [PO4] (mg/dL)^2 at Day 28” value ([1]; 4 g/day (N = 32), Day 28) of the same compound?
Its value is 55.4 (mg/dL)^2.

And the “Serum [Ca] (mg/dL) at Day 0” value ([1]; 6 g/day (N = 32))?
The value was 8.99 mg/dL.

And the “Serum [PO4] (mg/dL) at Day 0” value ([1]; 6 g/day (N = 32))?
The value was 7.3 mg/dL.

What about the “[Ca] * [PO4] (mg/dL)^2 at Day 0” value ([1]; 6 g/day (N = 32)) of the same compound?
The value was 65.8 (mg/dL)^2.

And the “Serum [Ca] (mg/dL) at Day 14” value ([1]; 6 g/day (N = 32), Day 14)?
Its value is 9.13 mg/dL.

What about the “Serum [PO4] (mg/dL) at Day 14” value ([1]; 6 g/day (N = 32), Day 14) of the same compound?
The value was 6.3 mg/dL.

What about the “[Ca] * [PO4] (mg/dL)^2 at Day 14” value ([1]; 6 g/day (N = 32), Day 14) of the same compound?
Its value is 57.5 (mg/dL)^2.

And the “Serum [Ca] (mg/dL) at Day 28” value ([1]; 6 g/day (N = 32), Day 28)?
The value was 9.26 mg/dL.

And the “Serum [PO4] (mg/dL) at Day 28” value [1, 4]?
Its value is 5.8 mg/dL.

And the “[Ca] * [PO4] (mg/dL)^2 at Day 28” value [1, 4]?
The value was 54.1 (mg/dL)^2.

And the “Ca*P04 levels” value ([1]; 6 gm/day dose at both 14 and 28 days)?
The value was “have decreased and were statistically significant”.

What about the “Serum Ca (mg/dL): Dose Response” value ([1]; Day 0) of the same compound?
The value was “No”.

And the “Ca × PO4 (mg/dL)^2: Dose Response” value [1, 5]?
The value was “Yes”.

What about the “Ca × PO4 (mg/dL)^2: Linear Regression P” value [1, 5] of the same compound?
The value was “P = 0.0401”.

What about the “Ca × PO4 (mg/dL)^2: Statistical Significant” value [1, 5] of the same compound?
The value was “No”.

What about the “Serum Ca (mg/dL): Dose Response” value [1, 5] of the same compound?
Its value is “No”.

What about the “Serum Ca (mg/dL): Statistical Significant” value [1, 5] of the same compound?
The value was “No”.

What about the “Serum PO4 (mg/dL): Dose Response” value [1, 5] of the same compound?
The value was “No”.

And the “Serum PO4 (mg/dL): Statistical Significant” value [1, 5]?
Its value is “No”.

And the “Serum Ca (mg/dL): Linear Regression” value ([1]; Day 14)?
Its value is “N.S”.

And the “Ca × PO4 (mg/dL)^2: Dose Response” value [1, 6]?
The value was “Yes”.

What about the “Serum Ca (mg/dL): Dose Response” value [1, 6] of the same compound?
Its value is “No”.

And the “Serum Ca (mg/dL): Statistical Significant” value [1, 6]?
Its value is “No”.

And the “Serum PO4 (mg/dL): Dose Response” value [1, 6]?
The value was “Yes”.

What about the “Serum PO4 (mg/dL): Linear Regression P” value [1, 6] of the same compound?
The value was “P = 0.0073”.

What about the “Serum PO4 (mg/dL): Statistical Significant” value [1, 6] of the same compound?
Its value is “Yes (6 g/day)”.

And the “[Ca] * [PO4] (mg/dL)^2: Dose Response” value ([1]; Day 28, 2, 4, 6 g/day vs placebo)?
Its value is “Yes”.

And the “Serum Ca (mg/dL): Linear Regression” value ([1]; Day 28)?
The value was “N.S”.

What about the “Ca × PO4 (mg/dL)^2: Statistical Significant” value ([1]; Day 78, 2, 4, 6 g/day TID vs placebo) of the same compound?
The value was “Yes (6 g/day)”.

What about the “serum Ca×P” value ([1]; Phase II study) of the same compound?
Its value is “decrease serum Ca×P in a dose-dependent manner”.

And the “change in serum calcium level” value ([1]; during the 28 days, 2, 4, and 6 gm/day)?
The value was “No significant change”.

What about the “ability to lower serum phosphate levels” value ([1]; patients with ESRD) of the same compound?
The value was “demonstrated”.

What about the serum creatinine level [2] of the same compound?
Its serum creatinine level is “trend of decreased serum creatinine level”.
